The results in this text go back to ChEMBL document CHEMBL5137125, “Echiumin E, an Aryl Dihydronaphthalene Lignan from the Australian Invasive Plant Paterson's Curse (Echium plantagineum)” (J Nat Prod, 2022).

Bounds are passed on as bounds.

Series [1] has as its system SH-SY5Y. Kind of series: Cytotoxicity against human SH-SY5Y cells assessed as inhibition of cell growth and measured after 72 hrs resazurin reduction assay. The format is functional, cell-based. A general note: Resazurin is reduced to fluorescent resorufin, in cell work by metabolically active cells.
For series [2], the system named is PC-3. Kind of series: Cytotoxicity against human PC-3 cells assessed as inhibition of cell growth and measured after 72 hrs resazurin reduction assay. The note with it: PC-3, 72 h. The class given is functional, cell-based.
Series [3] in a line: Cytotoxicity against human WPMY-1 cells assessed as inhibition of cell growth and measured after 72 hrs resazurin reduction assay. The class given is toxicity, cell-based. The note with it: for IC50 at 72 h: WPMY-1 cells.
The test system of series [4] is SH-SY5Y. Kind of series: Cytotoxicity against human SH-SY5Y cells assessed as inhibition of cell growth and measured upto 72 hrs by clonogenic assay. The format is functional, cell-based.
Series [5] relates to HeLa. Kind of series: Cytotoxicity against human HeLa cells assessed as inhibition of cell growth and measured after 72 hrs resazurin reduction assay. The class given is functional, cell-based.

As for `COc1cc([C@H]2c3cc(O)c(OC)cc3C=C3C(=O)OC[C@H]4O[C@@](CO)(O[C@H]5O[C@H](COC(=O)/C=C/c6ccc(O[C@@H]7O[C@@H](C)[C@H](O)[C@@H](O)[C@H]7O)cc6)[C@@H](O)[C@H](O)[C@H]5O)[C@@H](OC(=O)[C@@H]32)[C@@H]4O)ccc1O`, the IC50 in series [1] and in series [2] was above 10 µM throughout. Further, in series [3] (wpmy-1, 72 h, time 72 hrs), the Activity entry is recorded as “Non-Toxic”.

`O=C(O[C@H](Cc1ccc(O)c(O)c1)C(=O)O)c1cc(-c2ccc(O)c(O)c2)c2cc(O)c(O)cc2c1`: the concentration for half-maximal inhibition (IC50) in series [1] and in series [2] was above 10 µM throughout. In series [3], the IC50 at 72 h was above 10 µM.

With `O=C(OC(Cc1ccc(O)c(O)c1)C(=O)O)C1=Cc2cc(O)c(O)cc2[C@H](c2ccc(O)c(O)c2)[C@H]1C(=O)O[C@@H](Cc1ccc(O)c(O)c1)C(=O)O` (some centres undefined), the IC50 in series [1] and in series [2] was above 10 µM throughout. Besides, the IC50 at 72 h in series [3] is above 10 µM.

On to `CC(=O)O[C@@]12CO[C@@H]1C[C@H](O)[C@@]1(C)C(=O)[C@H](O)C3=C(C)[C@@H](OC(=O)[C@H](O)[C@@H](NC(=O)OC(C)(C)C)c4ccccc4)C[C@@](O)([C@@H](OC(=O)c4ccccc4)[C@H]21)C3(C)C` [DOCETAXEL ANHYDROUS], for which the results for the IC50 in series [4] and in series [2] were 0.0018 µM and 0.0006 µM, respectively. The IC50 at 72 h in series [3] stood at 0.21 µM.

Consider `COc1cccc2c1C(=O)c1c(O)c3c(c(O)c1C2=O)C[C@@](O)(C(=O)CO)C[C@@H]3O[C@H]1C[C@H](N)[C@H](O)[C@H](C)O1` [DOXORUBICIN], for which the half-inhibitory concentration (IC50) in series [1] was determined as 0.04 µM; in series [5], 1.96 µM; in series [2], 0.01 µM. Also, the IC50 at 72 h in series [3] was 0.02 µM.

As for `O=C(/C=C/c1ccc(O)c(O)c1)O[C@H](Cc1ccc(O)c(O)c1)C(=O)O` [ROSMARINIC ACID], the IC50 in series [1] and in series [2] was above 10 µM each time. Moreover, the IC50 at 72 h in series [3] is above 10 µM.

As a reminder, the IC50 is the point on the concentration scale where inhibition reaches its midpoint.
